The source of these data is patent US11484032B2, “Compositions for inhibition of insect sensing” (Vanderbilt University, priority 2011, dated 2022).

Assay [1] deals with T1, AgORco (Anopheles gambiae, UniProt Q7QCC7).
T1 construct: expressed in transfected cells
T1 sequence (Q7QCC7 1-478): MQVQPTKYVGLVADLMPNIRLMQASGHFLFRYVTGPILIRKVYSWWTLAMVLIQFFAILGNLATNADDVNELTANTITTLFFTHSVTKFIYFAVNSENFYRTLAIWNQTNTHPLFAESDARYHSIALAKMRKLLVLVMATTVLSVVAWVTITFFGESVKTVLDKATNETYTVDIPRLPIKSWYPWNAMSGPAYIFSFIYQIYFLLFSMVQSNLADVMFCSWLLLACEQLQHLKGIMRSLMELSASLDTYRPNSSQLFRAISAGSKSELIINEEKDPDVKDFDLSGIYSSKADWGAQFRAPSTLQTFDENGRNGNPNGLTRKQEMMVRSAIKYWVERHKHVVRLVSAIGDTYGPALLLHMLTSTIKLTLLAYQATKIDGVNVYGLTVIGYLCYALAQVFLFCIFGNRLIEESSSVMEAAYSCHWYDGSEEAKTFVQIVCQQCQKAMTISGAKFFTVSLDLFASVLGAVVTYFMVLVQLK
Put plainly: Whole-cell patch clamp, HEK293 cells stably expressing AgORco alone. The following applies: for whole-cell current response: AgORco alone cells, holding potential −60 mV. Type of assay: cell-based. The method, then: (§1) Currents from OR-expressing HEK293 cells were amplified with an Axopatch 200b Amplifier (Axon Instruments) and digitized through a Digidata 1322A (Axon Instruments). Electrophysiological data was recorded and analyzed using pCLAMP 10 (Axon Instruments). Electrodes were fabricated from quartz tubing (Sutter Instruments) and pulled to 4-6 MiΩ for whole cell recording. Electrodes were filled with internal solution (120 mM KCl, 30 mM D-glucose, 10 mM HEPES, 2 mM MgCl2, 1.1 mM EGTA, and 0.1 CaCl2) (pH 7.35, 280 mOsm). External (bath) solution contained 130 mM NaCl, 34 mM D-glucose, 10 mM HEPES, 1.5 mM CaCl2), 1.3 mM KH2PO4, and 0.5 MgSO4 (pH 7.35, 300 mOsm). Compounds were diluted in external solution and locally perfused to the recording cell using Perfusion Pencil (Automate Scientific) and controlled by a ValveLink 8.2 controller (Automate Scientific). Whole cell recordings were sampled at 10 kHz and filtered at 5 kHz. Outside-out patches were obtained using 10-15MΩ electrodes pulled from standard glass capillaries (World Precision Instruments) and fire-polished with an MF-830 micro forge (Narishige). Single channel recordings were sampled at 20 kHz. Recordings were reduced to 1 kHz and low-pass filtered at 500 Hz for display and analysis using QuB (SUNY at Buffalo).
(§2) To test the hypothesis that VUAA1 directly agonized AgORco, whole-cell patch clamp responses were examined in AgORco+AgOR10 expressing cells as well as HEK293 cells stably expressing AgORco alone. […] The VUAA1-dependent currents in AgORco+AgOR10 cells resembled those resulting from application of benzaldehyde, an orthosteric agonist of AgOR10 (FIG. 3C) (Wang, 2010; Carey, 2010). […] To investigate the specificity of VUAA1 agonism, the inventors transiently transfected HEK cells with the AgORco orthologs of Drosophila melanogaster and Heliothis virescens, DmORco and HvOR2 respectively.
A general note: The patch-clamp technique gives a direct electrical read-out from membranes.

In assay [2] the target is T2, AgORco+AgOR10 (Anopheles gambiae, UniProt Q7QCC7).
T2 construct: expressed in transfected cells
T2 sequence (Q7QCC7 1-478): T1 sequence (Q7QCC7 1-478)
Description: Whole-cell patch clamp, HEK293 cells expressing AgORco+AgOR10. Type of assay: cell-based. The following applies: for whole-cell current response: holding potential −60 mV. The protocol:
as §1, §2

Assay [3] has as its target T2, AgORco+AgOR10. Description: Fluo-4 Ca2+ imaging, HEK293 cells expressing Orco+AgOR10. The following applies: Orco 10 + Orco; for Orco 10 + Orco Angatonist % Reduction: antagonist mode. The arrangement: Orco 10 + Orco Angatonist % Reduction / Orco 10 + Orco Agonist % of control: concentration or dose not given beside the values. Type of assay: cell-based. In outline: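 Stable Flp-In T-REx 293 lines co-expressing Orco and OR, induced overnight with 0.3 u-g/ul tetracycline, loaded with 1.8 uM Fluo-4 AM plus 2.5 mM probenecid for 45 min at 37 °C. Ca2+ mobilization read after 20 s baseline and compound addition; Max/Min ratios normalized to the maximum responder.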

The target in assay [4] is T3, Orco 28 + Orco (Anopheles gambiae, UniProt Q7QCC7).
T3 construct: expressed in transfected cells
T3 sequence (Q7QCC7 1-478): T1 sequence (Q7QCC7 1-478)
Put plainly: Activity against insect odorant sensory receptors, Orco 28 + Orco (Table 1). Type of assay: cell-based. The following applies: for Orco 28 + Orco Antagonist % Reduction: antagonist mode; for Orco 28 + Orco Potentiator % increase: potentiator mode. The protocol:
The activity against insect odorant sensory receptors was evaluated for various disclosed compounds, and the data were collected in Table 1.

Assay [5] has as its target T4, mosquito odorant receptor (complex not stated) (Anopheles gambiae, UniProt Q7QCC7).
T4 sequence (Q7QCC7 1-478): T1 sequence (Q7QCC7 1-478)
Description: Agonism of mosquito odorant receptors by VUAA derivatives (complex not stated), cell-based Ca2+ imaging. The following applies: FIGS. 23, 24, 26, 28; OR complex not stated. From the text: For transient transfections, ORs were cloned into pCl (Promega) and transfected into Flp-In™ T-REx™293 cell lines (Invitrogen) with Fu GENE6 (Roche). For the creation of stable cell lines, a cell culture expression vector capable of expressing Orco in conjunction with a conventional OR, pcDNA5/FRT/TO (Invitrogen) was modified to create two individual expression cassettes each under the control of a separate CMV/Tet02 promoter and a BGH poly-adenylation signal. Cells (as above) were transfected with the modified pcDNA5 plasmid along with POG44 (a Flp recombinase expression plasmid) to facilitate site-specific recombination. Stable cell lines were selected using Hygromycin B (Invitrogen). Cells were maintained in DMEM (Invitrogen) supplemented with 10% Tetracycline-free FBS (HyClone) and 15 ng/ml Blasticidin. For fluorometric Ca2+ measurements, stable lines expressing ORs of interest were seeded at 20,000 cells/well in black wall, poly-lysine coated 384-well cell culture plates (Greiner) and treated with […] tetracycline (Sigma) overnight to induce OR expression. Cells were dye-loaded with 1.8 uM Fluo-4 AM (Molecular Probes), 2.5 mM Probenecid (Molecular Probes) in assay buffer (20 mM HEPES, IX HBSS) for 45 minutes at 37° C. in 5% CO2 prior to each assay. Ca^2+ mobilization was assayed in an FDSS6000 (Hamamatsu). Baseline readings were taken for 20 s before automated addition of compound previously diluted in DMSO and assay buffer. Ratios were described as Maximum/Minimum response and each response was normalized to the maximum responder.

Assay [6] has as its system Un-transfected HEK293 cells. Description: Whole-cell patch clamp, un-transfected HEK293 control cells. Type of assay: cell-based, human. The protocol: as §1
For assay [7], the target named is T5, rat transient receptor potential vanilloid 1 (rTRPV1) (Rattus norvegicus, UniProt O35433).
T5 construct: expressed in transfected cells
Put plainly: Whole-cell patch clamp, HEK cells stably expressing rTRPV1. Type of assay: cell-based.

T5 sequence (O35433 whole entry): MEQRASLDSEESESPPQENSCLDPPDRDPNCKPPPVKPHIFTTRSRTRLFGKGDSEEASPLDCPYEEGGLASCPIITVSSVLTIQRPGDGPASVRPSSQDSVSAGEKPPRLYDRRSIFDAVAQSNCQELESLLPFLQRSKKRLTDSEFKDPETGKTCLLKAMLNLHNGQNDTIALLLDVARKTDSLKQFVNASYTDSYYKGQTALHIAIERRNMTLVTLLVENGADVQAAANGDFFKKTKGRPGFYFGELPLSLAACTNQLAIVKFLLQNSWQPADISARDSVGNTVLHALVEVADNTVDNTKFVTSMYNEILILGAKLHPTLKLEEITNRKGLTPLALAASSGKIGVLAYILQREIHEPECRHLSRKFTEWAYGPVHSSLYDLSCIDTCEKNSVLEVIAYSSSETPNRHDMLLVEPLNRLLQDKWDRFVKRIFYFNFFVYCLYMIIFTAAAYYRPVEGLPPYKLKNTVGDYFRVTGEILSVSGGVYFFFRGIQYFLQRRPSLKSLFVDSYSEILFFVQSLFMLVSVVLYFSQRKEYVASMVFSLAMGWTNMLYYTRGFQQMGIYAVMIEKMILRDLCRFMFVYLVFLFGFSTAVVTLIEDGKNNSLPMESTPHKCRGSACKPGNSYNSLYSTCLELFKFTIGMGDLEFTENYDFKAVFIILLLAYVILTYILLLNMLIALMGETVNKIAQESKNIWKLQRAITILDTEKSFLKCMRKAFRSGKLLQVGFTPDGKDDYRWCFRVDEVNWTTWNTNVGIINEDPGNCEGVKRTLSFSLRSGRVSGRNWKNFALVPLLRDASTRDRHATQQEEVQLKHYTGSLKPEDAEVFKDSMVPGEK

On to `Nc1ncnc2c1nc(Br)n2[C@@H]1O[C@@H]2COP(=O)(O)O[C@H]2[C@H]1O` [8-Br cAMP, 8-Br-cAMP], for which the whole-cell current response result in assay [1] and in assay [2] (AgORco+AgOR10 cells) was “unable to evoke whole-cell currents” each time. As for `CCn1c(SCC(=O)N2c3ccccc3Sc3ccccc32)nnc1-c1ccco1`, in assay [3], the “Orco 10 + Orco Angatonist % Reduction” value was determined as 48.26%. In addition, the “Orco 28 + Orco Antagonist % Reduction” value in assay [4] is 28.73%.

Consider `CCn1c(Cc2c(C)[nH]c3ccccc23)nnc1SCC(=O)Nc1ccc(Br)cc1`, for which the “Orco 10 + Orco Angatonist % Reduction” value in assay [3] was 13.11%. Besides, the “Orco 28 + Orco Antagonist % Reduction” value in assay [4] is reported as 37.93%.

As to `CCn1c(COc2ccccc2)nnc1SCC(=O)Nc1cc(C)ccc1OC`, the “Orco 10 + Orco Angatonist % Reduction” value in assay [3] is on record as 33.67%. The “Orco 28 + Orco Antagonist % Reduction” value in assay [4] is recorded as 17.21%.

For the compound `CCn1c(SCC(=O)Nc2ccc(C(C)C)cc2)nnc1-c1cnn(C)c1` [D00049 row 11], the EC50 (commonly the concentration that produces a half-maximal response) in assay [5] came out at 180 µM. On to `O=Cc1ccccc1` [Benzaldehyde], for which the results for the whole-cell current response result in assay [1], in assay [2] (AgORco+AgOR10 cells) and in assay [6] were “only Orco+AgOR10 cells responded to BA”, “concentration-dependent responses” and “did not respond”, respectively. Besides, the “reversal potential of agonist-induced current” value in assay [2] (AgORco+AgOR10 complexes, mean s.e.m.) is given as −2.9±1.4 mV. In the case of `CCn1c(CNC(=O)c2ccco2)nnc1SCC(=O)Nc1cc(C)c(C)cc1Br`, the “Orco 28 + Orco Potentiator % increase” value in assay [4] came to 12.28%. Regarding `CCn1c(SCC(=O)Nc2ccc(Cl)cc2C)nnc1-c1ccncc1`, the “Orco 28 + Orco Potentiator % increase” value in assay [4] is listed as 17.69%.

As for `CCn1c(Cc2ccccc2)nnc1SCC(=O)Nc1ccc(OC)cc1`, the “Orco 28 + Orco Potentiator % increase” value in assay [4] is recorded as 12.7%. Regarding `CCn1c(SCC(=O)Nc2ccc(S(=O)(=O)Nc3ccccn3)cc2)nnc1-c1ccncc1`, the “Orco 10 + Orco Potentiator % increase” value in assay [3] (potentiator mode) came to 12.31%. Also, the “Orco 28 + Orco Potentiator % increase” value in assay [4] is on record as 15.45%. For `N.N.N.N.N.N.N.N.N.N.N.N.N.N.[Cl-].[Cl-].[Cl-].[Cl-].[Cl-].[Cl-].[O-2].[O-2].[Ru+3].[Ru+3].[Ru+4]` [RR, Ruthenium Red], the “reduction of VUAA1 responses” value in assay [1] (AgORco cells, agonist VUAA1) was found to be 79.4±4.0%. In addition, in assay [2] (AgORco+AgOR10 cells, agonist VUAA1), the “reduction of VUAA1-elicited currents” value is 68.3±2.8%. Moreover, the “reduction of benzaldehyde-elicited currents” value in assay [2] (AgORco+AgOR10 cells, agonist benzaldehyde) was determined as 87.8±1.8%. `Nc1nc2c(nc(Br)n2[C@@H]2O[C@@H]3COP(=O)(O)O[C@H]3[C@H]2O)c(=O)[nH]1` [8-Br cGMP, 8-Br-cGMP]: the whole-cell current response entry in assay [1] and in assay [2] (AgORco+AgOR10 cells) was “unable to evoke whole-cell currents” each time. On to `COc1cc(CNC(=O)CCCC/C=C/C(C)C)ccc1O` [Capsaicin, capsaicin, reference compound], for which the whole-cell current response result in assay [7] is “robust response”. Regarding `CCn1c(SCC(=O)Nc2ccc(C(C)C)cc2)nnc1-c1cccnc1` [D00049 row 2], in assay [5], the EC50 stood at 20 µM. As to `CCn1c(SCC(=O)Nc2ccc(C(C)C)cc2)nnc1-c1cn[nH]c1` [D00049 row 12], the concentration for a half-maximal effect (EC50) in assay [5] is 200 µM.
